Seven compounds from US20050197331A1, “Novel anti-inflammatory and analgesic heterocyclic amidines that inhibit nitrogen oxide (NO) production” (ROTTAPHARM SPA, priority 2004, published 2005) can be followed below.

Data set [1] has as its system formation of NO measured as NO2^− (nitrite). The data set is described as follows: Inhibition of NO (nitrite) formation in rabbit articular chondrocytes stimulated with IL-1β. It counts as cell-based. The following applies: for IC50: Oryctolagus cuniculus, Chondrocyte. The procedure: (§1) a) The inhibitory activity on the formation of NO measured as NO2^− (nitrite) and PGE2 was studied in vitro on culture media of rabbit articular chondrocytes stimulated with the cytokine IL-1β (1 ng/ml) for 48 hours. For the preparation of the chondrocytes, the method described by Berenbaum et al. [FEBS Letters 340, 51-55 (1994)] was followed. Briefly, fragments of cartilage removed aseptically from the articular heads of rabbit shoulder, hip and knee were finely ground and digested at 37° C. in hyaluronidase, trypsin and collagenase solutions, giving, after filtration through sterile gauze and centrifugation at 600×g and suitable dilution with 10% DMEM-FCS 10%, a concentration per well of about 1×10^5 cells. The cells were maintained under these conditions until confluent (about 15 days), the medium being replaced every 3 days. At this point, the test products dissolved in the medium were added to each sample and, after 20 minutes, 350 μl of IL-1β were added, to give a final concentration of 1 ng/ml. The stimulation lasted 48 hours at 37° C. (incubation in air/7% CO2). A nitrite assay was subsequently performed on the cell supernatant, as described by Green et al. [Anal. Biochem. 126, 131-138 (1982)], and of PGE2 by RIA assay. The results obtained are shown in Table 3, in which is given, for a number of the compounds that are the subject of the invention and that are already illustrated in Table 1, the IC50, i.e. the concentration (micromolar) of antagonist capable of inhibiting the formation of nitrites and PGE2 by 50% relative to the control group, i.e. relative to the cells stimulated with IL-1β but without addition of antagonists.

The test system of data set [2] is PGE2. As to the kind of experiment: Inhibition of PGE2 formation in rabbit articular chondrocytes stimulated with IL-1β (RIA). The settings on record: for IC50: Oryctolagus cuniculus, Chondrocyte. The data set is classed as cell-based. The procedure: as §1
[3] abbreviates: rabbit articular chondrocytes, IL-1β 1 ng/ml, 48 hours, nitrite in supernatant, read-out: Inhibition % IC50 NO.
Setting [4] is: rabbit articular chondrocytes, IL-1β 1 ng/ml, 48 hours, RIA, read-out: Inhibition % IC50 PGE2.
Where [5] appears, read: rabbit articular chondrocytes stimulated with IL-1β, read-out: IC50, formation of PGE2.
Where [6] appears, read: rabbit articular chondrocytes stimulated with IL-1β.

Read-outs that look alike come from different tables or passages of the source.

By IC50 is commonly meant the concentration that gives 50% inhibition. As a reminder, the melting point is the temperature, or range, at which the solid turns liquid. In the case of `CC(=N)Nc1ccc2oc(-c3ccc(C(F)(F)F)cc3)nc2c1` [Compound 32, N-[2-(4-trifluromethylphenyl)benzoxazol-5-yl]acetamidine], the melting point is 179.2 to 181 °C. In data set [1] (setting [3]), the IC50 turned out to be 8.1 µM. For the same compound, the IC50 in data set [2] (setting [4]) turned out to be 0.6 µM.
With `CC(=N)Nc1ccc2oc(-c3ccccc3F)nc2c1` [Compound 33, N-[2-(2-fluorophenyl)benzoxazol-5-yl]acetamidine], the melting point lay in the range of 157.9 to 159.2 °C. Moreover, the IC50 in data set [1] (setting [3]) was 47 µM. For the same compound, the IC50 in data set [2] (setting [4]) was 13.8 µM.
For the compound `CC(=N)Nc1ccc2oc(-c3ccc(Cl)c(Cl)c3)nc2c1` [Compound 34, N-[2-(3,4-dichlorophenyl)benzoxazol-5-yl]acetamidine], the melting point lay in the range of 182 to 184 °C. For the same compound, the IC50 in data set [1] (rabbit articular chondrocytes stimulated with IL-1β, read-out: IC50, production of NO) was 3 to 8 µM. In addition, the IC50 in data set [1] (setting [3]) came out at 4.3 µM. Also, in data set [2] (setting [5]), the IC50 lay within 0.3 to 0.8 µM. In addition, in data set [2] (setting [4]), the IC50 stood at 0.4 µM.
With `CC(=N)Nc1ccc2[nH]c(-c3ccc(Cl)c(Cl)c3)nc2c1` [Compound 35, N-[2-(3,4-dichlorophenyl)benzimidazol-5-yl]acetamidine], the melting point was 207.4 to 209 °C. Also, the “inhibiting the production of NO (in words)” value in data set [1] (setting [6]) is recorded as “little activity”. Further, the IC50 in data set [2] (setting [5]) is 0.3 to 0.8 µM. Further, in data set [2] (setting [4]), the IC50 turned out to be 0.4 µM. Also, the “IC50, formation of PGE2” value in data set [2] (setting [6]) is “sub-micromolar”.
As for `COc1ccccc1-c1nc2cc(NC(C)=N)ccc2[nH]1` [Compound 37], the melting point fell in the range of 190.5 to 192.8 °C. Moreover, the IC50 in data set [1] (setting [3]) was found to be 32.1 µM. The IC50 in data set [2] (setting [4]) came to 2.8 µM.
`CC(=N)Nc1ccc2[nH]c(-c3ccccc3C)nc2c1` [Compound 39, N-[2-(2-methylphenyl)benzimidazol-5-yl]acetamidine] returned a melting point of 154 to 158 °C. In addition, the IC50 in data set [1] (setting [3]) is 199 µM. Also, the IC50 in data set [2] (setting [4]) is 9.9 µM.
As for `CC(=N)Nc1ccc2nc(-c3ccccc3)oc2c1` [Compound 42, N-(2-phenylbenzoxazol-6-yl)acetamidine], the melting point was 176.3 to 177.8 °C. Besides, in data set [1] (setting [3]), the IC50 amounted to 42.9 µM. In data set [2] (setting [4]), the IC50 stood at 5.1 µM.
